Earlier results on 2 compounds are cited in patent US6706892B1, “Pulmonary delivery for bioconjugation” (priority 1999, dated 2004).

The test system of one data set is breast cancer. The settings on record: in vivo.
For data set [1] the following is noted: in vivo.

In the case of `O=C(c1ccc(OCCN2CCCCC2)cc1)c1c(-c2ccc(O)cc2)sc2cc(O)ccc12` [Raloxifene], the “cut in the risk of breast cancer” value in the data set with breast cancer was ≤ 60%. Regarding `CC1=NS(=O)(=O)c2cc(Cl)ccc2N1` [Diazoxide], the half-life entry in data set [1] is “about 24 hours”.
